What was measured:
[1] = target: SOS1/KRAS-G12D (Homo sapiens (Human), UniProt Q07889); experiment: SOS1/KRAS-G12D binding inhibition assay (AlphaScreen); settings: GST-SOS1 and 6*His KRAS-G12D, read-out: KrasG12D/SOS1 binding IC50
Procedure, shortened: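 GST-SOS1 (5 nM) pre-incubated 30 min with His6-KRAS-G12D (50 nM) in HEPES pH 7.4, NaCl, DTT, MgCl2, Tween-20, BSA; compound in 2% DMSO then added for 30 min at 4° C. GSH donor and Ni-NTA acceptor AlphaScreen beads, 2 h at 4° C; background-corrected % inhibition versus DMSO, IC50 by variable-slope nonlinear regression.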

[2] = tested on: Phospho-ERK1/2 in DLD1 cells; experiment: Phospho-ERK1/2 expression inhibition in DLD1 cells; type: cell-based; settings: Homo sapiens, DLD-1, 4 hours, read-out: DLD1 pERK IC50
Procedure, shortened: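 DLD1 cells (15,000/well) were plated overnight, then exposed to compounds for 4 h at 37 °C. Cells were formaldehyde-fixed and methanol-permeabilized. Phospho-ERK1/2 was detected in-cell with rabbit anti-phospho-ERK1/2 and an IRDye 800CW secondary antibody, imaged on a LI-COR Odyssey.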

[3] = tested on: K562 cells; experiment: Cell growth inhibition of K562 cells (CellTiter-Glo); type: cell-based; settings: Homo sapiens, 120 h, 5 days

Chain of SOS1/KRAS-G12D (Q07889 564-1049 limits assumed): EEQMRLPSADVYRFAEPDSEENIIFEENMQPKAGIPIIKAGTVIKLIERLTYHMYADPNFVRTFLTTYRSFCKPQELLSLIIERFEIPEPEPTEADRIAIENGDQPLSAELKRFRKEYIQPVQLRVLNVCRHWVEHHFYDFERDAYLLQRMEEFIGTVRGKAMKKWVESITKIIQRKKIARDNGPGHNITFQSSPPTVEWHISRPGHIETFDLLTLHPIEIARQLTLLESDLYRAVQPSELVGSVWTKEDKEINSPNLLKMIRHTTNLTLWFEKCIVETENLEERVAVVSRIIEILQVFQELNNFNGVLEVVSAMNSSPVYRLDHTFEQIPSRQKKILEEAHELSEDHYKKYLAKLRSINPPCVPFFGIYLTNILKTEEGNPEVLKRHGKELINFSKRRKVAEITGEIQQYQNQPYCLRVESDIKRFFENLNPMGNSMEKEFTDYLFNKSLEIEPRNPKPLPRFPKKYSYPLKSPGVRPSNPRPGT

Structure (SMILES)	IC50 [1]	IC50 [2]	GI50 [3]
CO[C@]1(c2ccc3nccc(N[C@H](C)c4cccc(C(F)F)c4F)c3c2)CCN(C(C)=O)C1 [Compound 76, 1-((S)-3-(4-(((R)-1-(3-(difluoromethyl)-2-fluorophenyl)ethyl)amino)quinolin-6-yl)-3-methoxypyrrolidin-1-yl)ethan-1-one]	≤ 10 nM	≤ 150 nM	≤ 100 nM
COC1(c2ccc3nccc(N[C@H](C)c4cccc(C(F)(F)F)c4C)c3c2)CCN(C(=O)CC#N)CC1 [Compound 77, (R)-3-(4-methoxy-4-(4-((1-(2-methyl-3-(trifluoromethyl)phenyl)ethyl)amino)quinolin-6-yl)piperidin-1-yl)-3-oxopropanenitrile]	10 to 100 nM	150 to 500 nM	> 500 nM
COC1(c2ccc3nccc(N[C@H](C)c4cccc(C(F)(F)F)c4C)c3c2)CCN(C(=O)CF)CC1 [Compound 78, (R)-2-fluoro-1-(4-methoxy-4-(4-((1-(2-methyl-3-(trifluoromethyl)phenyl)ethyl)amino)quinolin-6-yl)piperidin-1-yl)ethan-1-one]	≤ 10 nM	150 to 500 nM	≤ 100 nM
COC1(c2ccc3nccc(N[C@H](C)c4cccc(C(F)(F)F)c4C)c3c2)CCN(C(C)=O)CC1 [Compound 79, (R)-1-(4-methoxy-4-(4-((1-(2-methyl-3-(trifluoromethyl)phenyl)ethyl)amino)quinolin-6-yl)piperidin-1-yl)ethan-1-one]	10 to 100 nM	150 to 500 nM	100 to 500 nM
COC1(c2ccc3nccc(N[C@H](C)c4cccc(C(F)(F)F)c4C)c3c2)CCN(C(=O)C(C)C)CC1 [Compound 80, (R)-1-(4-methoxy-4-(4-((1-(2-methyl-3-(trifluoromethyl)phenyl)ethyl)amino)quinolin-6-yl)piperidin-1-yl)-2-methylpropan-1-one]	10 to 100 nM	> 500 nM	100 to 500 nM
CC(C)C(=O)N1CCC(F)(c2ccc3nccc(N[C@H](C)c4cccc(C(F)F)c4F)c3c2)CC1 [Compound 81, (R)-1-(4-(4-((1-(3-(difluoromethyl)-2-fluorophenyl)ethyl)amino)quinolin-6-yl)-4-fluoropiperidin-1-yl)-2-methylpropan-1-one]	≤ 10 nM	≤ 150 nM	≤ 100 nM
Cc1c([C@@H](C)Nc2ccnc3ccc(C4(F)CCN(C(=O)C(C)C)CC4)cc23)cccc1C(F)(F)F [Compound 82, (R)-1-(4-fluoro-4-(4-((1-(2-methyl-3-(trifluoromethyl)phenyl)ethyl)amino)quinolin-6-yl)piperidin-1-yl)-2-methylpropan-1-one]	> 100 nM	> 500 nM	100 to 500 nM
CC(=O)N1CCC(O)(c2ccc3nccc(N[C@H](C)c4cccc(C(F)F)c4F)c3c2)C1 (stereo partly drawn) [Compound 83, 1-(3-(4-(((R)-1-(3-(difluoromethyl)-2-fluorophenyl)ethyl)amino)quinolin-6-yl)-3-hydroxypyrrolidin-1-yl)ethan-1-one]	≤ 10 nM	150 to 500 nM	≤ 100 nM
CC(=O)N1CCC(F)(c2ccc3nccc(NC(C)c4cccc(C(F)F)c4F)c3c2)CC1 (stereo not drawn) [Compound 84, 1-(4-(4-((1-(3-(difluoromethyl)-2-fluorophenyl)ethyl)amino)quinolin-6-yl)-4-fluoropiperidin-1-yl)ethan-1-one]	≤ 10 nM	150 to 500 nM	≤ 100 nM
CC(=O)N1CC[C@](F)(c2ccc3nccc(N[C@H](C)c4cccc(C(F)F)c4F)c3c2)C1 [Compound 85, 1-((S)-3-(4-(((R)-1-(3-(difluoromethyl)-2-fluorophenyl)ethyl)amino)quinolin-6-yl)-3-fluoropyrrolidin-1-yl)ethan-1-one]	≤ 10 nM	> 500 nM	100 to 500 nM
CO[C@@]1(c2ccc3nccc(N[C@H](C)c4cccc(C#N)c4C)c3c2)CCN(C(C)=O)C1 [Compound 87, 3-((R)-1-((6-((R)-1-acetyl-3-methoxypyrrolidin-3-yl)quinolin-4-yl)amino)ethyl)-2-methylbenzonitrile]	> 100 nM	> 500 nM	> 500 nM
CO[C@]1(c2ccc3nccc(N[C@H](C)c4cccc(C#N)c4C)c3c2)CCN(C(C)=O)C1 [Compound 88, 3-((R)-1-((6-((S)-1-acetyl-3-methoxypyrrolidin-3-yl)quinolin-4-yl)amino)ethyl)-2-methylbenzonitrile]	10 to 100 nM	≤ 150 nM	100 to 500 nM
COC(=O)N1CC[C@](OC)(c2ccc3nccc(N[C@H](C)c4cccc(C(F)F)c4F)c3c2)C1 [Compound 89, methyl (S)-3-(4-(((R)-1-(3-(difluoromethyl)-2-fluorophenyl)ethyl)amino)quinolin-6-yl)-3-methoxypyrrolidine-1-carboxylate]	≤ 10 nM	> 500 nM	≤ 100 nM
COC(=O)N1CC[C@@](OC)(c2ccc3nccc(N[C@H](C)c4cccc(C(F)F)c4F)c3c2)C1 [Compound 90, methyl (R)-3-(4-(((R)-1-(3-(difluoromethyl)-2-fluorophenyl)ethyl)amino)quinolin-6-yl)-3-methoxypyrrolidine-1-carboxylate]	10 to 100 nM	> 500 nM	100 to 500 nM
CO[C@@]1(c2ccc3nccc(N[C@H](C)c4cccc(C(F)F)c4F)c3c2)CCN(C(=O)C(C)C)C1 [Compound 91, 1-((R)-3-(4-(((R)-1-(3-(difluoromethyl)-2-fluorophenyl)ethyl)amino)quinolin-6-yl)-3-methoxypyrrolidin-1-yl)-2-methylpropan-1-one]	≤ 10 nM	> 500 nM	100 to 500 nM
CO[C@]1(c2ccc3nccc(N[C@H](C)c4cccc(C(F)F)c4F)c3c2)CCN(C(=O)C(C)C)C1 [Compound 92, 1-((S)-3-(4-(((R)-1-(3-(difluoromethyl)-2-fluorophenyl)ethyl)amino)quinolin-6-yl)-3-methoxypyrrolidin-1-yl)-2-methylpropan-1-one]	≤ 10 nM	≤ 150 nM	≤ 100 nM
CO[C@@]1(c2ccc3nccc(N[C@H](C)c4cccc(C(F)F)c4F)c3c2)CCN(C(=O)C2CC2)C1 [Compound 95, cyclopropyl((R)-3-(4-(((R)-1-(3-(difluoromethyl)-2-fluorophenyl)ethyl)amino)quinolin-6-yl)-3-methoxypyrrolidin-1-yl)methanone]	≤ 10 nM	> 500 nM	100 to 500 nM
CO[C@]1(c2ccc3nccc(N[C@H](C)c4cccc(C(F)F)c4F)c3c2)CCN(C(=O)C2CC2)C1 [Compound 96, cyclopropyl((S)-3-(4-(((R)-1-(3-(difluoromethyl)-2-fluorophenyl)ethyl)amino)quinolin-6-yl)-3-methoxypyrrolidin-1-yl)methanone]	≤ 10 nM	150 to 500 nM	≤ 100 nM
CC(=O)N1CC=C(c2ccc3nccc(N[C@H](C)c4cccc(C(F)F)c4F)c3c2)C1 [Compound 97, (R)-1-(3-(4-((1-(3-(difluoromethyl)-2-fluorophenyl)ethyl)amino)quinolin-6-yl)-2,5-dihydro-1H-pyrrol-1-yl)ethan-1-one]	10 to 100 nM	> 500 nM	100 to 500 nM
CO[C@]1(c2ccc3nccc(N[C@H](C)c4cccc(C(F)F)c4F)c3c2)CCN(C(=O)N(C)C)C1 [Compound 98, (S)-3-(4-(((R)-1-(3-(difluoromethyl)-2-fluorophenyl)ethyl)amino)quinolin-6-yl)-3-methoxy-N,N-dimethylpyrrolidine-1-carboxamide]	≤ 10 nM	> 500 nM	100 to 500 nM
CO[C@@]1(c2ccc3nccc(N[C@H](C)c4cccc(C(F)F)c4F)c3c2)CCN(C(=O)N(C)C)C1 [Compound 99, (R)-3-(4-(((R)-1-(3-(difluoromethyl)-2-fluorophenyl)ethyl)amino)quinolin-6-yl)-3-methoxy-N,N-dimethylpyrrolidine-1-carboxamide]	≤ 10 nM	150 to 500 nM	≤ 100 nM
COC(=O)N1CCC(OC)(c2ccc3nccc(N[C@H](C)c4cccc(C(F)F)c4F)c3c2)CC1 [Compound 100, methyl (R)-4-(4-((1-(3-(difluoromethyl)-2-fluorophenyl)ethyl)amino)quinolin-6-yl)-4-methoxypiperidine-1-carboxylate]	≤ 10 nM	150 to 500 nM	100 to 500 nM
CNC(=O)N1CC[C@@](OC)(c2ccc3nccc(N[C@H](C)c4cccc(C(F)F)c4F)c3c2)C1 [Compound 101, (R)-3-(4-(((R)-1-(3-(difluoromethyl)-2-fluorophenyl)ethyl)amino)quinolin-6-yl)-3-methoxy-N-methylpyrrolidine-1-carboxamide]	≤ 10 nM	> 500 nM	100 to 500 nM
CNC(=O)N1CC[C@](OC)(c2ccc3nccc(N[C@H](C)c4cccc(C(F)F)c4F)c3c2)C1 [Compound 102, (S)-3-(4-(((R)-1-(3-(difluoromethyl)-2-fluorophenyl)ethyl)amino)quinolin-6-yl)-3-methoxy-N-methylpyrrolidine-1-carboxamide]	≤ 10 nM	≤ 150 nM	≤ 100 nM

— patent US20240208909A1, “SUBSTITUTED QUINOLINE DERIVATIVES HAVING SOS1 INHIBITION ACTIVITIES AND USES THEREOF” (Accutar Biotechnology Inc., priority 2022, published 2024)
